Source: patent US20200377561A1, “ANTIMICROBIAL PEPTIDES AND METHODS OF TREATING GRAM-NEGATIVE PATHOGEN INFECTIONS: POLAR AND NON-POLAR FACE ANALOGS” (THE REGENTS OF THE UNIVERSITY OF COLORADO, a body corporate, priority 2017, published 2020)
Read-outs that look alike come from different tables or passages of the source. Peptide text beside a SMILES is read from it.

How the values were obtained:
[1] = Peptide hydrophobicity by RP-HPLC retention; format: physicochemical; details: for tR (relative hydrophobicity by RP-HPLC): Zorbax SB-300 C8, 0.25% B/min from 10% B, 0.3 ml/min, 30° C.; for ΔtR (Lys): retention time difference to the Lys13/Lys16 parent peptide
From the text: Retention behavior in RP-HPLC is an excellent method to represent overall peptide hydrophobicity. Retention times of peptides are highly sensitive to the conformational status of the peptides upon interaction with the hydrophobic environment of the column matrix^17,26. The non-polar faces of amphipathic alpha-helical and amphipathic cyclic beta-sheet peptides represent a preferred binding domain for interaction with the hydrophobic matrix of the reversed-phase column^27. In this study, the observed peptide hydrophobicity was determined by RP-HPLC retention time as described below and are relative hydrophobicities because they are dependent on the TFA concentration and organic solvent in the mobile phase, gradient rate, temperature, flow rate and the column used. Analytical Purification by Reversed-phase Chromatography: Analytical RP-HPLC: Column: Zorbax SB-300 C8 (150×2.1 mm ID; 5-μm particle size; 300 Å pore size). Conditions: linear AB gradient (0.25% B/min from 10% B) at a flow-rate of 0.3 ml/min, where Eluent A is 0.2% aq. TFA and Eluent B is 0.18% TFA in acetonitrile; 30° C.

[2] = test system: Staphylococcus aureus ATCC 29213; format: cell-based
Protocol: (§1) Bacterial strains were acquired from the American Type Culture Collection (ATCC, Virginia, USA) and the National Collection of Type Cultures (NCTC, Public Health England, Salisbury, UK). Minimum Inhibitory Concentration (MIC) of peptides versus gram-negative strains-Acinetobacter baumannii NCTC 13420, and Pseudomonas aeruginosa ATCC 27853 and gram-positive strain Staphylococcus aureus ATCC 29213, were determined by broth microdilution as per the guidelines of the Clinical and Laboratory Standards Institute (“Methods for Dilution Antimicrobial Susceptibility Tests for Bacteria That Grow Aerobically”; Approved Standard-Ninth Edition. CLSI document M07-A9, 2012). Peptides were dissolved in sterile distilled water, which was also used as the drug-free vehicle control when determining peptide MICs. Prior to use in the MIC protocol, bacterial strains were grown on Mueller Hinton agar at 37° C. in an ambient atmosphere. […] A fixed inoculum of the test microorganism (5×10^5 cells/mL) is also added to the plate. The MIC is determined as the lowest concentration of compound that inhibits visible bacterial growth following incubation at 37° C. for 16-20 hours. A difference in MIC of two-fold between experimental replicates is considered to be within the normal variability of this protocol.

[3] = test system: Acinetobacter baumannii NCTC 13420; format: cell-based
Protocol: as §1

[4] = test system: Pseudomonas aeruginosa ATCC 27853; format: cell-based
Protocol: as §1

[5] = test system: Human erythrocytes; assay: Haemolysis assay using human blood; format: cell-based
Protocol: To determine the extent of haemolytic activity (the ability to lyse red blood cells) in test peptides, a haemolysis assay was conducted using human blood (BioIVT, West Sussex, UK). Human erythrocytes were exposed to a single fixed concentration or a range of concentrations as to determine the % haemolysis (fixed concentration) or the concentration at which 50% haemolysis occurred (HC50), respectively. Prior to the assay, whole human blood was repeatedly washed in phosphate buffered saline (PBS) under cooled conditions to remove the buffy coat, plasma and cell debris. Washed erythrocytes were diluted as to achieve 1×10^8 cells/mL in PBS. Prepared human erythrocyte samples were combined with peptide at a single fixed concentration of 128 μg/mL, or a range of concentrations (two-fold dilution series) from 1000-31.25 μg/mL. Positive and negative controls containing 2% (v/v) Triton X-100 and PBS alone, respectively, were also prepared. Samples were incubated at 37° C. for 1 hour and then centrifuged to collect intact erythrocytes. Haemoglobin release was determined by recording the optical density of the supernatant at 540 nm. Optical density values were transformed to a percentage of the positive control. Results were recorded as a percentage haemolysis at 128 μg/mL, or by plotting the percentage haemolysis versus concentration and extrapolating the HC50 using linear regression analysis (Table 2 above)
The therapeutic index is a widely-accepted parameter to represent the specificity of antimicrobial peptides for prokaryotic versus eukaryotic cells. It is calculated by the ratio of hemolytic activity and antimicrobial activity (MIC) (Table 2 above); thus, larger values of therapeutic index indicate greater specificity for prokaryotic cells. With the peptides used in this study the inventors used the HC50/MIC ratio value to calculate the therapeutic index.

[6] = test system: Acinetobacter baumannii NCTC 13420; format: cell-based; details: CA-MHB supplemented with 20% human serum (v/v)
Protocol: Bacterial strains were acquired from the American Type Culture Collection (ATCC, Virginia, USA) and the National Collection of Type Cultures (NCTC, Public Health England, Salisbury, UK). Minimum Inhibitory Concentration (MIC) of peptides versus gram-negative strains-Acinetobacter baumannii NCTC 13420, and Pseudomonas aeruginosa ATCC 27853 and gram-positive strain Staphylococcus aureus ATCC 29213, were determined by broth microdilution as per the guidelines of the Clinical and Laboratory Standards Institute (“Methods for Dilution Antimicrobial Susceptibility Tests for Bacteria That Grow Aerobically”; Approved Standard-Ninth Edition. CLSI document M07-A9, 2012). Peptides were dissolved in sterile distilled water, which was also used as the drug-free vehicle control when determining peptide MICs. Prior to use in the MIC protocol, bacterial strains were grown on Mueller Hinton agar at 37° C. in an ambient atmosphere. […] A fixed inoculum of the test microorganism (5×10^5 cells/mL) is also added to the plate. The MIC is determined as the lowest concentration of compound that inhibits visible bacterial growth following incubation at 37° C. for 16-20 hours. A difference in MIC of two-fold between experimental replicates is considered to be within the normal variability of this protocol. […]

[7] = cation-adjusted Mueller Hinton broth, 37° C., 16-20 hours

Row | SMILES | tR (relative hydrophobicity by RP-HPLC) [1] [min] | S. Aureus ATCC22213 MIC ([2]; ATCC 29213) [µg/mL] | Antimicrobial Activity MIC A. baumannii NCTC13420 ([3]; NCTC 13420) [µg/mL] | P. aeruginosa ATCC27853 MIC ([4]; ATCC 27853) [µg/mL] | Haemolysis HC50 ([5]; red cells of human, 1 h) [µg/mL] | S. Aureus ATCC22213 MIC [2, 7] [µg/mL] | Antimicrobial Activity MIC A. baumannii NCTC13420 [3, 7] [µg/mL] | P. aeruginosa ATCC27853 MIC [4, 7] [µg/mL] | Antimicrobial Activity MIC A. baumannii NCTC13420 plus 20% SERUM [6] [µg/mL] | Haemolysis HC50 ([5]; human erythrocytes, 37° C., 1 hour) [µg/mL] | ΔtR (Lys) [1] [min]
1 | CC(=O)N[C@H](CCCCN)C(=O)N[C@H](CC(C)C)C(=O)N[C@H](CCCCN)C(=O)N[C@H](CCCCN)C(=O)N[C@H](CC(C)C)C(=O)N[C@H](CC(C)C)C(=O)N[C@H](CCCCN)C(=O)N[C@H](CCCCN)C(=O)N[C@H](CC(C)C)C(=O)N[C@H](CO)C(=O)N[C@H](CO)C(=O)N[C@H](C)C(=O)N[C@H](CCCCN)C(=O)N[C@H](CO)C(=O)N[C@H](CO)C(=O)N[C@H](CCCCN)C(=O)N[C@H](CC(C)C)C(=O)N[C@H](CO)C(=O)N[C@@H](C(=O)N[C@H](CC(C)C)C(=O)N[C@H](CC(C)C)C(=O)N[C@H](CCCCN)C(=O)N[C@H](CCCCN)C(=O)N[C@H](CC(C)C)C(=O)N[C@H](CCCCN)C(=O)N[C@H](CCCCN)C(N)=O)[C@H](C)O [compound 3] (HELM PEPTIDE1{[ac].[dK].[dL].[dK].[dK].[dL].[dL].[dK].[dK].[dL].[dS].[dS].[dA].[dK].[dS].[dS].[dK].[dL].[dS].[dT].[dL].[dL].[dK].[dK].[dL].[dK].[dK].[am]}$$$$V2.0) | 87.37 | 64 | 2 | 4 | >2000 | – | – | – | – | – | –
2 | CC(=O)N[C@H](CCCCN)C(=O)N[C@H](CC(C)C)C(=O)N[C@H](CCCCN)C(=O)N[C@H](CCCCN)C(=O)N[C@H](CC(C)C)C(=O)N[C@H](CC(C)C)C(=O)N[C@H](CCCCN)C(=O)N[C@H](CCCCN)C(=O)N[C@H](CC(C)C)C(=O)N[C@H](CO)C(=O)N[C@H](CO)C(=O)N[C@H](C)C(=O)N[C@H](CCCCN)C(=O)N[C@H](CO)C(=O)N[C@H](CO)C(=O)N[C@H](CCCCN)C(=O)N[C@H](CC(C)C)C(=O)N[C@H](CO)C(=O)N[C@H](CO)C(=O)N[C@H](CC(C)C)C(=O)N[C@H](CC(C)C)C(=O)N[C@H](CCCCN)C(=O)N[C@H](CCCCN)C(=O)N[C@H](CC(C)C)C(=O)N[C@H](CCCCN)C(=O)N[C@H](CCCCN)C(N)=O [compound 24] (HELM PEPTIDE1{[ac].[dK].[dL].[dK].[dK].[dL].[dL].[dK].[dK].[dL].[dS].[dS].[dA].[dK].[dS].[dS].[dK].[dL].[dS].[dS].[dL].[dL].[dK].[dK].[dL].[dK].[dK].[am]}$$$$V2.0) | – | – | – | – | – | 64 | 1 | 2 | 2 | >2000 | –
3 | CC(=O)N[C@H](CCCCN)C(=O)N[C@H](CC(C)C)C(=O)N[C@H](CCCCN)C(=O)N[C@H](CCCCN)C(=O)N[C@H](CC(C)C)C(=O)N[C@H](CC(C)C)C(=O)N[C@H](CCCCN)C(=O)N[C@H](CCCCN)C(=O)N[C@H](CC(C)C)C(=O)N[C@H](CCCCN)C(=O)N[C@H](CO)C(=O)N[C@H](C)C(=O)N[C@H](CCCCN)C(=O)N[C@H](CO)C(=O)N[C@H](CO)C(=O)N[C@H](CCCCN)C(=O)N[C@H](CC(C)C)C(=O)N[C@H](CO)C(=O)N[C@@H](C(=O)N[C@H](CC(C)C)C(=O)N[C@H](CC(C)C)C(=O)N[C@H](CO)C(=O)N[C@H](CCCCN)C(=O)N[C@H](CC(C)C)C(=O)N[C@H](CCCCN)C(=O)N[C@H](CCCCN)C(N)=O)[C@H](C)O [compound 6] (HELM PEPTIDE1{[ac].[dK].[dL].[dK].[dK].[dL].[dL].[dK].[dK].[dL].[dK].[dS].[dA].[dK].[dS].[dS].[dK].[dL].[dS].[dT].[dL].[dL].[dS].[dK].[dL].[dK].[dK].[am]}$$$$V2.0) | – | 128 | 2 | 2 | >2000 | – | – | – | – | – | –
4 | CC(=O)N[C@H](C)C(=O)N[C@H](CC(C)C)C(=O)N[C@H](CCCCN)C(=O)N[C@H](CCCCN)C(=O)N[C@H](CC(C)C)C(=O)N[C@H](CC(C)C)C(=O)N[C@H](CCCCN)C(=O)N[C@H](CCCCN)C(=O)N[C@H](CC(C)C)C(=O)N[C@H](CO)C(=O)N[C@H](CO)C(=O)N[C@H](C)C(=O)N[C@H](CCCN)C(=O)N[C@H](CO)C(=O)N[C@H](CO)C(=O)N[C@H](CCCN)C(=O)N[C@H](CC(C)C)C(=O)N[C@H](CO)C(=O)N[C@@H](C(=O)N[C@H](CC(C)C)C(=O)N[C@H](CC(C)C)C(=O)N[C@H](CCCCN)C(=O)N[C@H](CCCCN)C(=O)N[C@H](CC(C)C)C(=O)N[C@H](CCCCN)C(=O)N[C@H](CCCCN)C(N)=O)[C@H](C)O [compound 19] (HELM PEPTIDE1{[ac].[dA].[dL].[dK].[dK].[dL].[dL].[dK].[dK].[dL].[dS].[dS].[dA].[NCCC[C@@H](N[*:1])C(=O)[*:2]].[dS].[dS].[NCCC[C@@H](N[*:1])C(=O)[*:2]].[dL].[dS].[dT].[dL].[dL].[dK].[dK].[dL].[dK].[dK].[am]}$$$$V2.0) | 91.57 | – | 2 | 4 | >1000 | – | – | – | – | – | 2.94
5 | CC(=O)N[C@H](CCCCN)C(=O)N[C@H](CC(C)C)C(=O)N[C@H](CCCCN)C(=O)N[C@H](CCCCN)C(=O)N[C@H](CC(C)C)C(=O)N[C@H](CC(C)C)C(=O)N[C@H](CCCCN)C(=O)N[C@H](CCCCN)C(=O)N[C@H](CC(C)C)C(=O)N[C@H](CO)C(=O)N[C@H](CO)C(=O)N[C@H](C)C(=O)N[C@H](CCN)C(=O)N[C@H](CO)C(=O)N[C@H](CO)C(=O)N[C@H](CCN)C(=O)N[C@H](CC(C)C)C(=O)N[C@H](CO)C(=O)N[C@@H](C(=O)N[C@H](CC(C)C)C(=O)N[C@H](CC(C)C)C(=O)N[C@H](CCCCN)C(=O)N[C@H](CCCCN)C(=O)N[C@H](CC(C)C)C(=O)N[C@H](CCCCN)C(=O)N[C@H](CCCCN)C(N)=O)[C@H](C)O [compound 15] (HELM PEPTIDE1{[ac].[dK].[dL].[dK].[dK].[dL].[dL].[dK].[dK].[dL].[dS].[dS].[dA].[NCC[C@@H](N[*:1])C(=O)[*:2]].[dS].[dS].[NCC[C@@H](N[*:1])C(=O)[*:2]].[dL].[dS].[dT].[dL].[dL].[dK].[dK].[dL].[dK].[dK].[am]}$$$$V2.0) | 83.40 | – | 2 | 4 | >1000 | – | – | – | – | – | 3.97
